Series [1] has as its target Estrogen Receptor (ERα) in MCF-7 cells (Homo sapiens (Human), UniProt P03372). The series is described as follows: MCF-7 ER down-regulation assay (immuno-fluorescence). Type of series: cell-based. To be noted: maximum downregulation in the assay.
Method: The ability of compounds to down-regulate Estrogen Receptor (ER) numbers was assessed in a cell based immuno-fluorescence assay using the MCF-7 human ductal carcinoma breast cell line. MCF-7 cells were revived directly from a cryovial (approx 5×10^6 cells) in Assay Medium (phenol red free Dulbecco's Modified Eagle's medium (DMEM); Sigma D5921) containing 2 mM L-Glutamine and 5% (v/v) Charcoal/Dextran treated foetal calf serum. Cells were syringed once using a sterile 18G×1.5 inch (1.2×40 mm) broad gauge needle and cell density was measured using a Coulter Counter (Beckman). […] Following cell seeding, plates were incubated overnight at 37° C., 5% CO2 (Liconic carousel incubator). Test data was generated using the LabCyte Echomodel 555 compound reformatter which is part of an automated workcell (Integrated Echo 2 workcell). Compound stock solutions (10 mM) of the test compounds were used to generate a 384 well compound dosing plate (Labcyte P-05525-CV1). […] 40 μL of DMSO added to wells in row P on the source plate allowed for DMSO normalisation across the dose range. […]
The Echo uses acoustic technology to perform direct microplate-to-microplate transfers of DMSO compound solutions to assay plates. […] 20 μL of PBS was added to each well and the plates covered with a black plate seal and stored at 4° C. before being read. […]
A short description of series [2]: Human plasma protein binding (equilibrium dialysis). Type of series: in vitro ADME. Conditions: dialysis 18 hours.

Where only a bound is given, the exact number is not on record here.

Sequence of Estrogen Receptor (ERα) in MCF-7 cells (P03372 whole entry): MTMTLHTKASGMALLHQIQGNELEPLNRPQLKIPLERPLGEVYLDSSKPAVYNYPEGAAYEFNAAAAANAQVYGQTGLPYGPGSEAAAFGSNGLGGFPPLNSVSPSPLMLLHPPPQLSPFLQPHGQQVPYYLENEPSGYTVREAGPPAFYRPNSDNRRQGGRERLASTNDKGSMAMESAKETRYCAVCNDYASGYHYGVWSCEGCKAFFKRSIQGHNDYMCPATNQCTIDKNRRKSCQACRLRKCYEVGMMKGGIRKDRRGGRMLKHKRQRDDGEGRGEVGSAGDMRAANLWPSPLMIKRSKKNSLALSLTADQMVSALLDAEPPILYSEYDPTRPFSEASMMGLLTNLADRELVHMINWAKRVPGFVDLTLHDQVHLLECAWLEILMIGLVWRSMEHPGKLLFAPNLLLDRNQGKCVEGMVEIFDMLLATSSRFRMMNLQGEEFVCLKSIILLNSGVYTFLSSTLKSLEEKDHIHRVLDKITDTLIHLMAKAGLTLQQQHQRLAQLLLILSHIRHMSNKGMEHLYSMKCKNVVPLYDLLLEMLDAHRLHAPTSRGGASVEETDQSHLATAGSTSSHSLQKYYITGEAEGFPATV

On to `COCc1ccc(OCCNCCCF)cc1[C@@H]1c2[nH]c3ccccc3c2C[C@@H](C)N1CC(F)(F)F` [Example 71, 3-fluoro-N-(2-(4-(methoxymethyl)-3-((1R,3R)-3-methyl-2-(2,2,2-trifluoroethyl)-2,3,4,9-tetrahydro-1H-pyrido[3,4-b]indol-1-yl)phenoxy)ethyl)propan-1-amine], for which the “% downregulation (in brackets)” value in series [1] was determined as 90%. Also, the “Human plasma protein binding (% free)” value in series [2] came out at 0.44 % free.
Consider `C[C@@H]1Cc2c([nH]c3ccccc23)[C@@H](c2cc(OCCNCCCF)ccn2)N1CC(F)(F)F` [Example 35, 3-fluoro-N-(2-((2-((1S,3R)-3-methyl-2-(2,2,2-trifluoroethyl)-2,3,4,9-tetrahydro-1H-pyrido[3,4-b]indol-1-yl)pyridin-4-yl)oxy)ethyl)propan-1-amine], for which, in series [2], the “Human plasma protein binding (% free)” value came out at 5.4 % free.
Still for that read-out and setting: the result for `COc1ccc(OCCNCCC(F)(F)F)cc1[C@@H]1c2[nH]c3ccccc3c2C[C@@H](C)N1CC(F)(F)F` [Example 72, 3,3,3-trifluoro-N-(2-(4-methoxy-3-((1R,3R)-3-methyl-2-(2,2,2-trifluoroethyl)-2,3,4,9-tetrahydro-1H-pyrido[3,4-b]indol-1-yl)phenoxy)ethyl)propan-1-amine] reads below 0.1 % free.
The same measure, in the same setting: then `COc1ccc(OCCNCCCF)c(F)c1[C@@H]1c2[nH]c3ccccc3c2C[C@@H](C)N1CC1(F)COC1` [Example 84, 3-fluoro-N-(2-(2-fluoro-3-((1R,3R)-2-((3-fluorooxetan-3-yl)methyl)-3-methyl-2,3,4,9-tetrahydro-1H-pyrido[3,4-b]indol-1-yl)-4-methoxyphenoxy)ethyl)propan-1-amine], with 6 % free; and `C[C@@H]1Cc2c([nH]c3ccccc23)[C@@H](c2c(F)cnc(OCCNCCCF)c2F)N1CC(F)(F)F` [Example 107, N-(2-((3,5-difluoro-4-((1R,3R)-3-methyl-2-(2,2,2-trifluoroethyl)-2,3,4,9-tetrahydro-1H-pyrido[3,4-b]indol-1-yl)pyridin-2-yl)oxy)ethyl)-3-fluoropropan-1-amine], with 1 % free; and `Cc1c(OCCNCCCF)ncnc1[C@@H]1c2[nH]c3ccccc3c2C[C@@H](C)N1CC(F)(F)F` [Example 114, 3-fluoro-N-(2-((5-methyl-6-((1S,3R)-3-methyl-2-(2,2,2-trifluoroethyl)-2,3,4,9-tetrahydro-1H-pyrido[3,4-b]indol-1-yl)pyrimidin-4-yl)oxy)ethyl)propan-1-amine], with 1.7 % free.
On the same count and under the same terms, the result for `Cc1c([C@@H]2c3[nH]c4ccccc4c3C[C@@H](C)N2C[C@@H](C)C(=O)O)ccnc1OCCN(C)CCCF` [Example 161, (R)-3-((1R,3R)-1-(2-(2-((3-fluoropropyl)(methyl)amino)ethoxy)-3-methylpyridin-4-yl)-3-methyl-1,3,4,9-tetrahydro-2H-pyrido[3,4-b]indol-2-yl)-2-methylpropanoic Acid] reads 6.3 % free; that for `C[C@@H]1Cc2c([nH]c3ccccc23)[C@@H](c2ccnc(OCCNCCCF)c2)N1CC(F)(F)F` [Example 102, 3-fluoro-N-(2-((4-((1R,3R)-3-methyl-2-(2,2,2-trifluoroethyl)-2,3,4,9-tetrahydro-1H-pyrido[3,4-b]indol-1-yl)pyridin-2-yl)oxy)ethyl)propan-1-amine], 1.4 % free.
As to `C[C@@H]1Cc2c([nH]c3ccc(F)cc23)[C@@H](c2c(F)cnc(OCCN(C)CCCF)c2F)N1CC(F)(F)CO` [Example 67, 3-((1R,3R)-1-(3,5-difluoro-2-(2-((3-fluoropropyl)(methyl)amino)ethoxy)pyridin-4-yl)-6-fluoro-3-methyl-1,3,4,9-tetrahydro-2H-pyrido[3,4-b]indol-2-yl)-2,2-difluoropropan-1-ol], the “Human plasma protein binding (% free)” value in series [2] was 1.6 % free.
On the same count and under the same terms, the result for `Cc1c(NCCNCCCF)ccnc1[C@@H]1c2[nH]c3ccccc3c2C[C@@H](C)N1CC(F)(F)F` [Example 95, N1-(3-fluoropropyl)-N2-(3-methyl-2-((1S,3R)-3-methyl-2-(2,2,2-trifluoroethyl)-2,3,4,9-tetrahydro-1H-pyrido[3,4-b]indol-1-yl)pyridin-4-yl)ethane-1,2-diamine] reads 4.6 % free; that for `C[C@@H]1Cc2c([nH]c3ccccc23)[C@@H](c2cccc(OCCNCCCF)c2C(F)F)N1CC(F)(F)CO` [Example 68, 3-((1R,3R)-1-(2-(difluoromethyl)-3-(2-((3-fluoropropyl)amino)ethoxy)phenyl)-3-methyl-1,3,4,9-tetrahydro-2H-pyrido[3,4-b]indol-2-yl)-2,2-difluoropropan-1-ol], 1.2 % free.
Turning to `Cc1ncc(OCCNCCCF)cc1[C@@H]1c2[nH]c3ccccc3c2C[C@@H](C)N1CC(F)(F)F` [Example 37, 3-fluoro-N-(2-((6-methyl-5-((1R,3R)-3-methyl-2-(2,2,2-trifluoroethyl)-2,3,4,9-tetrahydro-1H-pyrido[3,4-b]indol-1-yl)pyridin-3-yl)oxy)ethyl)propan-1-amine], the “Human plasma protein binding (% free)” value in series [2] came to 2.3 % free.
On the same count and under the same terms, the result for `C[C@@H]1Cc2c([nH]c3ccccc23)[C@@](C)(c2cccc(OCCNCCCF)c2)N1CC(F)(F)F` [Example 75, N-(2-(3-((1R,3R)-1,3-dimethyl-2-(2,2,2-trifluoroethyl)-2,3,4,9-tetrahydro-1H-pyrido[3,4-b]indol-1-yl)phenoxy)ethyl)-3-fluoropropan-1-amine] reads 0.08 % free.
The same measure, in the same setting: the result for `C[C@@H]1Cc2c([nH]c3ccccc23)[C@@H](c2c(F)ccc(OCCNCCCF)c2F)N1CC(F)F` [Example 51, N-(2-(3-((1R,3R)-2-(2,2-difluoroethyl)-3-methyl-2,3,4,9-tetrahydro-1H-pyrido[3,4-b]indol-1-yl)-2,4-difluorophenoxy)ethyl)-3-fluoropropan-1-amine] reads 2.3 % free.
With `C[C@@H]1Cc2c([nH]c3ccccc23)[C@@H](c2cc(OCCNCCCF)ccc2Cl)N1CC(F)(F)CO` [Example 44, 3-((1R,3R)-1-(2-chloro-5-(2-((3-fluoropropyl)amino)ethoxy)phenyl)-3-methyl-1,3,4,9-tetrahydro-2H-pyrido[3,4-b]indol-2-yl)-2,2-difluoropropan-1-ol], the “Human plasma protein binding (% free)” value in series [2] worked out at 2.3 % free.
With `C[C@@H]1Cc2c([nH]c3ccccc23)[C@@H](c2c(F)cnc(OCCNCCCF)c2F)N1CC1(F)CC1` [Example 108, N-(2-((3,5-difluoro-4-((1R,3R)-2-((1-fluorocyclopropyl)methyl)-3-methyl-2,3,4,9-tetrahydro-1H-pyrido[3,4-b]indol-1-yl)pyridin-2-yl)oxy)ethyl)-3-fluoropropan-1-amine], in series [2], the “Human plasma protein binding (% free)” value came out at 2.3 % free.
The same measure, in the same setting: the result for `C[C@@H]1Cc2c([nH]c3ccccc23)[C@@H](c2nccc(OCCNCCCF)c2Cl)N1CC(F)(F)F` [Example 93, N-(2-((3-chloro-2-((1S,3R)-3-methyl-2-(2,2,2-trifluoroethyl)-2,3,4,9-tetrahydro-1H-pyrido[3,4-b]indol-1-yl)pyridin-4-yl)oxy)ethyl)-3-fluoropropan-1-amine] reads 0.34 % free.
In the case of `COc1ccc(OCCNCCCF)cc1[C@@H]1c2[nH]c3ccccc3c2C[C@@H](C)N1C[C@H](C)C(=O)O` [Example 53, (S)-3-((1R,3R)-1-(5-(2-((3-fluoropropyl)amino)ethoxy)-2-methoxyphenyl)-3-methyl-1,3,4,9-tetrahydro-2H-pyrido[3,4-b]indol-2-yl)-2-methylpropanoic acid], the “Human plasma protein binding (% free)” value in series [2] worked out at 80 % free.

The values above are taken from patent US10590132B2, “Selective estrogen receptor down-regulators” (AstraZeneca AB, priority 2017, dated 2020).
